Legend:
[1] = biological target: T1, Alpha-1A adrenergic receptor (Homo sapiens, UniProt P35348)
T1 sequence (P35348 whole entry): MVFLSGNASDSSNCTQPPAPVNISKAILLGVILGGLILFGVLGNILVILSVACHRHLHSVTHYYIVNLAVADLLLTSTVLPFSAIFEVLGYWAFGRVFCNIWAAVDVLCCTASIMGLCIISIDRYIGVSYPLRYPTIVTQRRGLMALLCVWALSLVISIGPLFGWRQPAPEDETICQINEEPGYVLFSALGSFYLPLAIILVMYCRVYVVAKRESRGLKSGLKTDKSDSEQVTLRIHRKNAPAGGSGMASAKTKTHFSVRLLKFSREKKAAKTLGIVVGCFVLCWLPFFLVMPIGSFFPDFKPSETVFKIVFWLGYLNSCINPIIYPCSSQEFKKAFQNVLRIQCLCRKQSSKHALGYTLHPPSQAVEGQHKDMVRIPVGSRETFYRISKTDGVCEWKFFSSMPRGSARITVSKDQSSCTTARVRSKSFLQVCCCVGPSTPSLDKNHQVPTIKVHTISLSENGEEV

[2] = biological target: T2, Alpha-1B adrenergic receptor (Mus musculus, UniProt Q05D47)
T2 sequence (Q05D47 whole entry): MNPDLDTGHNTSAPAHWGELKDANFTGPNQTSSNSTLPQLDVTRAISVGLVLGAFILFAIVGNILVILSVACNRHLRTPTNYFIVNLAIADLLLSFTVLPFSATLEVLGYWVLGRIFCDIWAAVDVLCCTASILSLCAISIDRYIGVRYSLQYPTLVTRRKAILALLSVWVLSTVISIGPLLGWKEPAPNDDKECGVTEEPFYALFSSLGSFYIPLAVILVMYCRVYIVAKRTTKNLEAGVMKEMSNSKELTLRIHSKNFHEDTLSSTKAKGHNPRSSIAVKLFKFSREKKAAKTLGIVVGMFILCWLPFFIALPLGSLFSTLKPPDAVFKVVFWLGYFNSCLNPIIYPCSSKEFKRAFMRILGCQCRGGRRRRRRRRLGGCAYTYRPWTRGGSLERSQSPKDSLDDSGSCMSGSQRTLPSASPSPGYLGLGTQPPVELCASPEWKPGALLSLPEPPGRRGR

Structure (SMILES)	Ki [1] [nM]	Ki [2] [nM]
Cc1c[nH]c(=O)n(CCCN2CCN(c3ccc(F)cc3OCC(F)(F)F)CC2)c1=O	100	79
CC(C)(Cc1c[nH]c2ccc(Cl)cc12)NCCOc1ccccc1OCC1CC1	16	16
COc1cc2nc(N3CCN(C(=O)C4CCCO4)CC3)nc(N)c2cc1OC (centres undefined) [6,7-dimethoxy-2-[4-(tetrahydrofuran-2-ylcarbonyl)piperazin-1-yl]quinazolin-4-amine]	–	2
COc1cc2nc(N(C)CCCNC(=O)C3CCCO3)nc(N)c2cc1OC (centres undefined) [N-{3-[(4-amino-6,7-dimethoxyquinazolin-2-yl)(methyl)amino]propyl}tetrahydrofuran-2-carboxamide]	–	10
COc1cc2nc(N3CCN(C(=O)C4COc5ccccc5O4)CC3)nc(N)c2cc1OC (centres undefined) [UK 33,274]	–	1
COc1ccccc1N1CCN(CCCNc2c(C)c(=O)n(C)c(=O)n2C)CC1 [Urapidil-5-methyl]	10	40

Reference: BindingDB's records for doi:10.1021/jm0503751 (University of Dublin, 2006)
